Laboratory results as given in patent US4505853A, “Enzyme-resistant immunomodulatory peptides” (Ortho Pharmaceutical Corporation, priority 1983, dated 1985).
Where a SMILES comes first, the peptide text is derived from it. Where no end group is shown, it is not given here. [ ]: non-standard residue; d: D form. The star is where a group is joined. Ac5c = NC1(C(=O)O)CCCC1; For = O=C*

How the values were obtained:
[1] = test system: Leucine Amino Peptidase (LAP); assay: Leucine Amino Peptidase (LAP) Degradation, amino acid analysis; type: in vitro ADME; conditions: Asp, Pro, Val, Tyr, Arg all 0.00
Source text: Leucine Amino Peptidase (LAP) Degradation Asp, 0.00; Pro, 0.00; Val, 0.00; Tyr, 0.00; Arg.

[2] = test system: thymopoeitin receptor site (membrane glycoprotein of CEM cells); conditions: 2.3×10^-10 M of 125I-TP, 4 g of binding protein, incubation 12 h
[3] = target: T1, porcine LAPcytosol (Leucine Aminopeptidase) (Sus scrofa, UniProt P28839); assay: Stability of peptides against leucine aminopeptidase; type: in vitro ADME; conditions: 1 × 10^-3 M peptide and 3 units/ml porcine LAPcytosol in 50 mM Tris pH 8.5 buffer with 5 mM MgCl2 at 37°
T1 sequence (P28839 1-519): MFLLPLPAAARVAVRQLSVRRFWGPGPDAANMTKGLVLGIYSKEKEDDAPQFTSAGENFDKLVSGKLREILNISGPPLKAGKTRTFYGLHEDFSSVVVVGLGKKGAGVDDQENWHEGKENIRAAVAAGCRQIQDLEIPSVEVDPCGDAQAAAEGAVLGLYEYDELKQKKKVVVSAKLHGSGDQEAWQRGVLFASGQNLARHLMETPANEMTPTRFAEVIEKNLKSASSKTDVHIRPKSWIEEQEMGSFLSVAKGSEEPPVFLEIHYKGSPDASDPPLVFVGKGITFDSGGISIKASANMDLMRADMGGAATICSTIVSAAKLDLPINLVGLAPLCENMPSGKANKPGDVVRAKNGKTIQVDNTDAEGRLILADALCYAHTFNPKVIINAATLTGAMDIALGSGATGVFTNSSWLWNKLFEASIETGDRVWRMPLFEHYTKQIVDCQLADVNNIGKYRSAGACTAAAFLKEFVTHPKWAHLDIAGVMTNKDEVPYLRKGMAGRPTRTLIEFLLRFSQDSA
Method: (§1) It has been determined that the half-life of thymopentin (thymopoeitin fragment 32-36) in serum is approximately one minute.
*1 × 10^-3 M peptide and 3 units/ml porcine LAPcytosol in 50 mM
Tris pH 8.5 buffer with 5 mM MgCl2 at 37°

[4] = Stability of peptides against human serum; type: in vitro ADME; conditions: 1 μg/ml peptide in fresh human serum at 37°
Method: as §1
*1 μg/ml peptide in fresh human serum at 37°

[5] = target: T2, bovine carboxypeptidase A (Bos taurus, UniProt P00730); assay: Stability of peptides against carboxypeptidase A; type: in vitro ADME; conditions: 1 × 10^-3 M peptide and 0.05 units/ml bovine carboxypeptidase in pH 8.5 borate buffer at 37°
T2 sequence (P00730 111-419): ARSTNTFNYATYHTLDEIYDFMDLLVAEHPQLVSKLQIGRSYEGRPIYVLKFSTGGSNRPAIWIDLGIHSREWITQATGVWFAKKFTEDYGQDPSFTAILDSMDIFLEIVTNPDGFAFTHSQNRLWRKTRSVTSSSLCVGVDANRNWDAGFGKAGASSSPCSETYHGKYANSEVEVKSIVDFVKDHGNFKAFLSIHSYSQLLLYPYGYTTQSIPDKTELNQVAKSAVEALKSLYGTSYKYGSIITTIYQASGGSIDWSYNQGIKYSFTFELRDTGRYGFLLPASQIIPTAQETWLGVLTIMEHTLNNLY
Method: as §1
*1 × 10^-3 M peptide and 0.05 units/ml bovine carboxypeptidase
in pH 8.5 borate buffer at 37°

[6] = Enzymatic degradation / half-life in serum; type: in vitro ADME
Source text: as §1

pro-Lyb-2 cells = assay: Induction assay, Lyb-2+ B cells; type: cell-based; conditions: B6-lyb-2.1 congenic mouse spleen cells, 3 hrs with inducer; controls without inducer <5% induced cells
Method: (§2) The compounds of the invention were tested following the induction assay procedure set out in Scheid, et al., J. Exp. Med. 147: 1727-1743 (1978) and also following a receptor assay procedure designed to measure displacement of radiolabelled thymopoeitin from a receptor site by the test peptides. A positive result on the induction assay indicates the ability of the test peptide to mimic the ability of thymopoeitin or splenin to induce precursor cells to immunocompetent T cells or T cells and B cells, respectively. A positive result on the receptor assay indicates the ability of the test peptide to bind to the thymopoeitin receptor site and thus to mimic thymopoeitin activity. The subject peptides are positive in the induction assay, while those in which X is ASP or D-ASP are also positive in the receptor assay.
(§3) The peptides of the invention wherein X is ASP or D-ASP are characterized by their ability to induce the selective differentiation of Thy-1^+ T cells (but not Lyb-2^+ B cells). Thy-1 is a differentiation alloantigen present on T cells but not B cells, whereas Lyb-2 is a differentiation alloantigen present on B cells but not T cells. Studies of these peptides in the induction assay in vitro show them to have the same induction specificity as thymopoietin. […]

Prothymocytes (Thy-1^-) = assay: Induction assay, Thy-1+ T cells; type: cell-based; conditions: B6-lyb-2.1 congenic mouse spleen cells, 3 hrs with inducer; controls without inducer <5% induced cells
Method: as §2, §3

CC(=O)N[C@@H](CCCNC(=N)N)C(=O)N1CCC[C@H]1C(=O)N[C@@H](CC(=O)O)C(=O)N[C@H](C(=O)N[C@H](Cc1ccc(O)cc1)C(=O)O)C(C)C [IX, Nα-Acetyl-Arginyl-Prolyl-Aspartyl-Valyl-D-Tyrosine] (Ac-RPDV[dY]-OH)
amino acids liberated by Leucine Amino Peptidase (LAP) [1]: no liberated amino acids were detected

CNC(=O)[C@H](Cc1ccc(O)cc1)NC(=O)[C@@H](NC(=O)[C@H](CC(=O)O)NC(=O)[C@@H]1CCCN1C(=O)[C@H](CCCNC(=N)N)NC(C)=O)C(C)C [N-α-acetyl-ARG-PRO-ASP-VAL-TYR-NHCH3, Nα-Acetyl-Arginyl-Prolyl-Aspartyl-Valyl-Tyrosine-N-Methylamide] (Ac-RPDVY-NHMe)
displacement of 125I-TP relative to that caused by thymopoietin self-displacement at equivalent concentrations [2]: ≥ 50%

CC(C)[C@H](NC(=O)[C@H](CC(=O)O)NC(=O)[C@@H]1CCCN1C(=O)[C@H](CCCNC(=N)N)NC=O)C(=O)N[C@@H](Cc1ccc(O)cc1)C(=O)O [N-α-formyl-ARG-PRO-ASP-VAL-TYR-OH, N^α -Formyl-Arginyl-Prolyl-Aspartyl-Valyl-Tyrosine] (For-RPDVY-OH)
displacement of 125I-TP relative to that caused by thymopoietin self-displacement at equivalent concentrations [2]: ≥ 50%

CC(C)[C@H](NC(=O)[C@H](CC(=O)O)NC(=O)C1(NC(=O)[C@@H](N)CCCNC(=N)N)CCCC1)C(=O)N[C@@H](Cc1ccc(O)cc1)C(=O)O [NH2 --Arg--Cle--Asp--Val--Tyr--OH, Arginyl-Cycloleucyl-Aspartyl-Valyl-Tyrosine] (H-R[Ac5c]DVY-OH)
Incubation time required for 50% degradation [3]: > 1400 min

C[C@H](N)C(=O)NCC(=O)N[C@H]1CSSC[C@@H](C(=O)O)NC(=O)[C@H](CO)NC(=O)[C@H]([C@@H](C)O)NC(=O)[C@H](Cc2ccccc2)NC(=O)[C@H]([C@@H](C)O)NC(=O)[C@H](CCCCN)NC(=O)[C@H](Cc2c[nH]c3ccccc23)NC(=O)[C@H](Cc2ccccc2)NC(=O)[C@H](Cc2ccccc2)NC(=O)[C@H](CC(N)=O)NC(=O)[C@H](CCCCN)NC1=O [somatostatin, reference compound]
displacement of 125I-TP / receptor assay result, in words [2]: no detectable displacement

ACTH: adrenocorticotropic hormone (SYSMEHFRWGKPVGKKRRPVKVYPNGAEDESAEAFPLEF; Corticotropin; UniProt P01189 138-176, looked up) [reference compound]
displacement of 125I-TP / receptor assay result, in words [2]: no detectable displacement

Ac-RPDAY [N-α-acetyl-ARG-PRO-ASP-ALA-TYR-OH, Nα-Acetyl-Arginyl-Prolyl-Aspartyl-Alanyl-Tyrosine]
displacement of 125I-TP relative to that caused by thymopoietin self-displacement at equivalent concentrations [2]: ≥ 50%

Ac-RPDEY [N-α-acetyl-ARG-PRO-ASP-GLU-TYR-OH, N^α -Acetyl-Arginyl-Prolyl-Aspartyl-Glutamyl-Tyrosine]
displacement of 125I-TP relative to that caused by thymopoietin self-displacement at equivalent concentrations [2]: ≥ 50%

Ac-RPDQY [N-α-acetyl-ARG-PRO-ASP-GLN-TYR-OH, Nα-acetyl-Arginyl-Prolyl-Aspartyl-Glutaminyl-Tyrosine]
displacement of 125I-TP relative to that caused by thymopoietin self-displacement at equivalent concentrations [2]: ≥ 50%

Ac-RPDVY [N--Acetyl-Arg--Pro--Asp--Val--Tyr--OH, Nα-Acetyl-Arginyl-Prolyl-Aspartyl-Valyl-Tyrosine]
displacement of 125I-TP relative to that caused by thymopoietin self-displacement at equivalent concentrations [2]: ≥ 50% | Incubation time required for 50% degradation [4]: 38 min

Ac-RPDVY-NH2 [N--Acetyl-Arg--Pro--Asp--Val--Tyr--NH2, N^α -acetyl-Arginyl-Prolyl-Aspartyl-Valyl-Tyrosine amide]
Incubation time required for 50% degradation [3]: > 1400 min | displacement of 125I-TP relative to that caused by thymopoietin self-displacement at equivalent concentrations [2]: ≥ 50% | Degradation in human serum, in words ([4]; at 30 minutes): no degradation | Incubation time required for 50% degradation [5]: > 1500 min

CRF: corticotropin-releasing factor (SEEPPISLDLTFHLLREVLEMARAEQLAQQAHSNRKLMEII; ends and bridges not checked; UniProt P06850 154-194, looked up) [reference compound]
displacement of 125I-TP / receptor assay result, in words [2]: no detectable displacement

RKDVY [NH2 --Arg--Lys--Asp--Val--Tyr--OH, reference compound]
Incubation time required for 50% degradation [3]: 15 min | half-life in serum ([6]; serum): approximately one | Incubation time required for 50% degradation [4]: 1.5 min | Incubation time required for 50% degradation [5]: 18 min

RKEVY [Splenopentin]
susceptibility to enzymatic degradation [6]: highly susceptible to enzymatic degradation

RPDVY [NH2 --Arg--Pro--Asp--Val--Tyr--OH]
Incubation time required for 50% degradation [3]: 230 min

RPDVY-NH2 [NH2 --Arg--Pro--Asp--Val--Tyr--NH2, Arginyl-Prolyl-Aspartyl-Valyl-Tyrosinamide]
displacement of 125I-TP relative to that caused by thymopoietin self-displacement at equivalent concentrations [2]: ≥ 50% | Incubation time required for 50% degradation [4]: > 20 min | Incubation time required for 50% degradation [5]: > 450 min

YRKDV [NH2 -TYR-ARG-LYS-ASP-VAL-OH]
induction of Lyb-2.1^+ cells (B cells) (pro-Lyb-2 cells): no induction | induction of Thy-1^+ cells (T cells) (Prothymocytes (Thy-1^-)): no induction

growth hormone: comparison peptide in the receptor assay [reference compound]
displacement of 125I-TP / receptor assay result, in words [2]: no detectable displacement

ubiquitin [reference compound]
displacement of 125I-TP / receptor assay result, in words [2]: no detectable displacement

β-endorphin: comparison peptide in the receptor assay (YGGFMTSEKSQTPLVTLFKNAIIKNAYKKGE; Beta-endorphin; UniProt P01189 237-267, looked up) [reference compound]
displacement of 125I-TP / receptor assay result, in words [2]: no detectable displacement
